In brackets after ≈: the same amount, converted by molar mass. Like-named read-outs stand apart in the source and are kept apart here.
Legend:
[1] = molecular target: T1, human amylin 3(a) receptor (human calcitonin receptor + RAMP-3) in BHK570 cells (Homo sapiens, UniProt O60896+P30988); test: ASSAY (II)a functional assay, human amylin receptor (CRE luciferase); assay type: cell-based
T1 construct: expressed in transfected cells
Summary of the method: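 Receptor activation is measured as cAMP-driven CRE-luciferase expression in BHK cells expressing the calcitonin receptor, with RAMP-3 co-expressed to form the amylin 3(a) receptor. Cells are exposed to compound for 3 hours at 37° C, and luciferase is then quantified by luminescence.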

[2] = molecular target: T2, human amylin receptor (membranes from Amylin 3(a)/CRE-luc cells) (Homo sapiens, UniProt O60896+P30988); test: ASSAY (V) binding to the human amylin receptor (SPA, 125I-rat amylin);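 note: competition binding of cell membranes (35 ng/µL) mixed with SPA beads in 384-well plates at 40 µL total volume, read by scintillation counting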
T2 construct: expressed in transfected cells
T2 sequence (P30988 25-474): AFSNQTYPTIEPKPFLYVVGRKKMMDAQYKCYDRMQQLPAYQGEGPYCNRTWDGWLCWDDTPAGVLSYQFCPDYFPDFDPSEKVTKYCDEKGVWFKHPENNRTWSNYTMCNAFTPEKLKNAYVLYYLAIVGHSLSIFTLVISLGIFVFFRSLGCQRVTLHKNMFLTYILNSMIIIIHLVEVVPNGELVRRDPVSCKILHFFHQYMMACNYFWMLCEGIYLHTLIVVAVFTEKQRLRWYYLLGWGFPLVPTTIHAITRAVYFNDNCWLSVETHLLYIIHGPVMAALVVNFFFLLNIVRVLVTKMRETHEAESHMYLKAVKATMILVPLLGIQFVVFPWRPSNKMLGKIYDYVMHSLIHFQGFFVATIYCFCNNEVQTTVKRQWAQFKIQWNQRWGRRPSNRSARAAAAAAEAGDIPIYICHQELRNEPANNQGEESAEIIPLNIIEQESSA
T2 sequence (O60896 24-148 partner): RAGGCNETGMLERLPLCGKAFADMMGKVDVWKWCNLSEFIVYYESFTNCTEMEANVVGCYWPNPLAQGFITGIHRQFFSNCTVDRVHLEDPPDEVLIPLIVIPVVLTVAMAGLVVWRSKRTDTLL

[3] = ASSAY (IV) determination of solubility; assay type: physicochemical
Summary of the method: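 Solubility measured by UPLC of supernatant after centrifugation, following 18 h at room temperature. Peptide ([…] in water) was diluted 1:1 into 100 mM glycylglycine (pH 3.0, 4.0, 5.0) or bistrispropane (pH 6.0-8.0).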

[4] = hCTR funct. EC50 divided by hAmylin-R funct. EC50
[5] = hCTR funct. EC50 over hAmylin-R funct. EC50
[6] = human functional selectivity: hCTR funct. EC50 / hAmylin-R funct. EC50
[7] = Table 5, selectivity, hCTR bind IC50 / hAmylin-R bind IC50
[8] = Table 5a, selectivity, hCTR bind IC50 / hAmylin-R bind IC50
[9] = Table 5b, selectivity, hCTR bind IC50 / hAmylin-R bind IC50
[10] = Table 5c, selectivity, hCTR bind IC50 / hAmylin-R bind IC50
[11] = Table 7, human binding selectivity, included for comparison
[12] = Table 7a (preferred compounds), human binding selectivity, included for comparison
[13] = ratio of human calcitonin receptor binding IC50 to human amylin receptor binding IC50
[14] = bistrispropane buffer, pH 6.5, read-out: Solubility pH 6.5 Concentration
[15] = bistrispropane buffer, pH 7.5, read-out: Solubility pH 7.5 Concentration
[16] = bistrispropane buffer, pH 6.0, read-out: Solubility pH 6.0 Concentration
[17] = bistrispropane buffer, pH 7.0, read-out: Solubility pH 7.0 Concentration
[18] = bistrispropane buffer, pH 8.0, read-out: Solubility pH 8.0 Concentration
[19] = glycylglycine buffer, pH 3.0, read-out: Solubility pH 3.0 Concentration
[20] = glycylglycine buffer, pH 4.0, read-out: Solubility pH 4.0 Concentration
[21] = glycylglycine buffer, pH 5.0, read-out: Solubility pH 5.0 Concentration

CC[C@H](C)[C@H](NC(=O)[C@H](C)NC(=O)CNC(=O)[C@H](Cc1ccccc1)NC(=O)[C@H](CC(N)=O)NC(=O)[C@@H]1CCCN1C(=O)[C@H](CO)NC(=O)[C@H](CO)NC(=O)[C@H](Cc1c[nH]cn1)NC(=O)[C@H](CCCNC(=N)N)NC(=O)[C@H](CC(C)C)NC(=O)[C@H](Cc1ccccc1)NC(=O)[C@H](CC(N)=O)NC(=O)[C@H](C)NC(=O)[C@H](CC(C)C)NC(=O)[C@H](CCCNC(=N)N)NC(=O)[C@H](CCC(N)=O)NC(=O)[C@@H](NC(=O)[C@H](C)NC(=O)[C@@H]1CSSC[C@H](NC(=O)[C@@H](N)CCCCNC(=O)COCCOCCNC(=O)COCCOCCNC(=O)CC[C@H](NC(=O)CCCCCCCCCCCCCCCCCCC(=O)O)C(=O)O)C(=O)N[C@@H](CC(N)=O)C(=O)N[C@@H]([C@@H](C)O)C(=O)N[C@@H](C)C(=O)N[C@@H]([C@@H](C)O)C(=O)N1)[C@@H](C)O)C(=O)N1CCC[C@H]1C(=O)N[C@@H](CO)C(=O)N[C@@H](CO)C(=O)N[C@H](C(=O)N[C@@H](CC(N)=O)C(=O)N[C@H](C(=O)NCC(=O)N[C@@H](Cc1c[nH]cn1)C(=O)N[C@@H](CC(N)=O)C(=O)N[C@H](C(=O)N[C@@H](Cc1ccc(O)cc1)C(N)=O)[C@@H](C)O)C(C)C)[C@@H](C)O [Example 97]
Ratio hCT/hAmylin funct. [1, 4]: 33.0 | Ratio hCT/hAmylin funct. [1, 5]: 33.0 | Ratio hCT/hAmylin funct. [1, 6]: 33.0 | Ratio hCT/hAmylin binding [2, 7]: 103.7 | Ratio hCT/hAmylin binding [2, 8]: 103.7 | Ratio hCT/hAmylin binding [2, 9]: 103.7 | Ratio hCT/hAmylin binding [2, 10]: 103.7 | Ratio hCT/hAmylin binding [2, 11]: 103.7 | Ratio hCT/hAmylin binding [2, 12]: 103.7 | Ratio hCT/hAmylin binding [2, 13]: 103.7 | solubility at 18 h [3, 14]: ≥ 200 µM | solubility at 18 h [3, 15]: 88 µM (≈ 415 µg/mL) | solubility at 18 h [3, 16]: ≥ 200 µM | solubility at 18 h [3, 17]: ≥ 200 µM | solubility at 18 h [3, 18]: 43 µM (≈ 203 µg/mL) | solubility at 18 h [3, 19]: ≥ 200 µM | solubility at 18 h [3, 20]: ≥ 200 µM | solubility at 18 h [3, 21]: ≥ 200 µM | Solubility pH 6.5 Concentration ([3]; pH 6.5 (Table 9a)): ≧200 μM | Solubility pH 7.0 Concentration ([3]; pH 7.0 (Table 9a)): ≧200 μM

CC[C@H](C)[C@H](NC(=O)[C@H](C)NC(=O)CNC(=O)[C@H](Cc1ccccc1)NC(=O)[C@H](CC(N)=O)NC(=O)[C@@H]1CCCN1C(=O)[C@H](CO)NC(=O)[C@H](CO)NC(=O)[C@H](Cc1c[nH]cn1)NC(=O)[C@H](CCCNC(=N)N)NC(=O)[C@H](CC(C)C)NC(=O)[C@H](Cc1ccccc1)NC(=O)[C@H](CC(N)=O)NC(=O)[C@H](C)NC(=O)[C@H](CC(C)C)NC(=O)[C@H](CCCNC(=N)N)NC(=O)[C@H](CCC(N)=O)NC(=O)[C@@H](NC(=O)[C@H](C)NC(=O)[C@@H]1CSSC[C@H](NC(=O)[C@@H](N)CCCCNC(=O)COCCOCCNC(=O)COCCOCCNC(=O)CC[C@H](NC(=O)CCCCCCCCCCCCCCCCCCC(=O)O)C(=O)O)C(=O)N[C@@H](CC(N)=O)C(=O)N[C@@H]([C@@H](C)O)C(=O)N[C@@H](C)C(=O)N[C@@H]([C@@H](C)O)C(=O)N1)[C@@H](C)O)C(=O)N1CCC[C@H]1C(=O)N[C@@H](CO)C(=O)N[C@@H](CO)C(=O)N[C@H](C(=O)N[C@@H](CC(N)=O)C(=O)N[C@H](C(=O)NCC(=O)N1CCC[C@H]1C(=O)N[C@@H](CC(N)=O)C(=O)N[C@H](C(=O)N[C@@H](Cc1ccc(O)cc1)C(N)=O)[C@@H](C)O)C(C)C)[C@@H](C)O [Example 98]
Ratio hCT/hAmylin funct. [1, 4]: 19.5 | Ratio hCT/hAmylin funct. [1, 5]: 19.5 | Ratio hCT/hAmylin funct. [1, 6]: 19.5 | Ratio hCT/hAmylin binding [2, 7]: 74.1 | Ratio hCT/hAmylin binding [2, 8]: 74.1 | Ratio hCT/hAmylin binding [2, 9]: 74.1 | Ratio hCT/hAmylin binding [2, 10]: 74.1 | Ratio hCT/hAmylin binding [2, 11]: 74.1 | Ratio hCT/hAmylin binding [2, 12]: 74.1 | Ratio hCT/hAmylin binding [2, 13]: 74.1 | solubility at 18 h [3, 14]: ≥ 200 µM | solubility at 18 h [3, 15]: ≥ 200 µM | solubility at 18 h [3, 16]: ≥ 200 µM | solubility at 18 h [3, 17]: ≥ 200 µM | solubility at 18 h [3, 18]: 176 µM (≈ 824 µg/mL) | solubility at 18 h [3, 19]: ≥ 200 µM | solubility at 18 h [3, 20]: ≥ 200 µM | solubility at 18 h [3, 21]: ≥ 200 µM

Reference: patent US9023789B2, “Amylin analogs and pharmaceutical compositions thereof” (Novo Nordisk A/S, priority 2012, dated 2015)
